Data from PubChem BioAssay AID248 (DTP/NCI, 2004).
Inconclusive results and toxic doses are left out. No stated cut-off is given here; in the data, active means T/C of 150% or more; inactive means T/C below 125%.

Test system: L1210 leukemia ip in BDF1 mice, survival T/C
Test: NCI In Vivo Anticancer Drug Screen. Data for tumor model L1210 Leukemia (intraperitoneal) in B6D2F1 (BDF1) mice
Conditions: higher = longer survival
Outline: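 Transplantable tumor model; survival measured in treated vs vehicle control mice. Value = treated/control.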

[1] = endpoint: mean survival time, dose: 100.0 mg/kg/injection, schedule: Q01DX001 (ip), vehicle: Klucel (hydroxypropylcellulose) (HPC)
[2] = endpoint: mean survival time, dose: 100.0 mg/kg/injection, schedule: Q04DX002 (ip), vehicle: Klucel (hydroxypropylcellulose) (HPC)
[3] = endpoint: mean survival time, dose: 200.0 mg/kg/injection, schedule: Q04DX002 (ip), vehicle: Klucel (hydroxypropylcellulose) (HPC)
[4] = endpoint: mean survival time, dose: 400.0 mg/kg/injection, schedule: Q04DX002 (ip), vehicle: Klucel (hydroxypropylcellulose) (HPC)
[5] = endpoint: mean survival time, dose: 100.0 mg/kg/injection, schedule: Q04DX003 (ip), vehicle: saline
[6] = endpoint: mean survival time, dose: 200.0 mg/kg/injection, schedule: Q04DX003 (ip), vehicle: saline
[7] = endpoint: mean survival time, dose: 400.0 mg/kg/injection, schedule: Q04DX003 (ip), vehicle: saline
[8] = endpoint: mean survival time, dose: 50.0 mg/kg/injection, schedule: Q01DX001 (ip), vehicle: carboxymethylcellulose (CMC)
[9] = endpoint: mean survival time, dose: 100.0 mg/kg/injection, schedule: Q01DX001 (ip), vehicle: saline
[10] = endpoint: mean survival time, dose: 200.0 mg/kg/injection, schedule: Q01DX001 (ip), vehicle: saline
[11] = endpoint: mean survival time, dose: 100.0 mg/kg/injection, schedule: Q01DX001 (ip), vehicle: carboxymethylcellulose (CMC)
[12] = endpoint: mean survival time, dose: 200.0 mg/kg/injection, schedule: Q01DX001 (ip), vehicle: carboxymethylcellulose (CMC)
[13] = endpoint: mean survival time, dose: 400.0 mg/kg/injection, schedule: Q01DX001 (ip), vehicle: carboxymethylcellulose (CMC)
[14] = endpoint: mean survival time, dose: 400.0 mg/kg/injection, schedule: Q01DX001 (ip), vehicle: saline

Measured: T/C

CC1CCCN(N=Nc2ccc(Br)cc2-c2nc(N)c3cc(Br)ccc3n2)C1 (stereo not given)
inactive: endpoint: mean survival time, dose: 25.0 mg/kg/injection, schedule: Q01DX001 (ip), vehicle: Klucel (hydroxypropylcellulose) (HPC) 97 % of control | endpoint: mean survival time, dose: 50.0 mg/kg/injection, schedule: Q01DX001 (ip), vehicle: Klucel (hydroxypropylcellulose) (HPC) 105 % of control | [1] 102 % of control

CC(C)(C)N(CCO)CC1C(c2ccccc2)C1c1ccccc1 (stereo not given)
inactive: endpoint: mean survival time, dose: 12.5 mg/kg/injection, schedule: Q04DX002 (ip), vehicle: Klucel (hydroxypropylcellulose) (HPC) 103 % of control | endpoint: mean survival time, dose: 25.0 mg/kg/injection, schedule: Q04DX002 (ip), vehicle: Klucel (hydroxypropylcellulose) (HPC) 103 % of control | endpoint: mean survival time, dose: 50.0 mg/kg/injection, schedule: Q04DX002 (ip), vehicle: Klucel (hydroxypropylcellulose) (HPC) 97 % of control

Cc1cc(Cl)cc(Cl)c1OCC(=O)O
inactive: [2] 98 % of control | [3] 95 % of control | [4] 95 % of control

COc1cc(/C=N/NC(=O)Cc2cccc3ccccc23)ccc1O
inactive: endpoint: mean survival time, dose: 100.0 mg/kg/injection, schedule: Q01DX009 (ip), vehicle: Klucel (hydroxypropylcellulose) (HPC) 109 % of control | [2] 107 % of control | endpoint: mean survival time, dose: 200.0 mg/kg/injection, schedule: Q01DX009 (ip), vehicle: Klucel (hydroxypropylcellulose) (HPC) 93 % of control | [3] 104 % of control | endpoint: mean survival time, dose: 400.0 mg/kg/injection, schedule: Q01DX009 (ip), vehicle: Klucel (hydroxypropylcellulose) (HPC) 98 % of control | [4] 96 % of control

CC1(C)NC(=O)N(CN2CCN(CN3C(=O)NC(C)(C)C3=O)CC2)C1=O
inactive: [5] 108 % of control | [6] 108 % of control | [7] 113 % of control

C[C@]12CC[C@H](O)C[C@H]1CC[C@@H]1[C@@H]2CC[C@]2(C)[C@@H](C3=CC(=O)OC3)CC[C@]12O
inactive: [8] 101 % of control | endpoint: median survival time, dose: 2.0 mg/kg/injection, schedule: Q01DX005 (ip), vehicle: water 98 % of control | endpoint: median survival time, dose: 4.0 mg/kg/injection, schedule: Q01DX005 (ip), vehicle: water 98 % of control | endpoint: median survival time, dose: 8.0 mg/kg/injection, schedule: Q01DX005 (ip), vehicle: water 103 % of control

CCCCCCCCCCC(CCCCCC)C(=O)O (stereo not given)
inactive: endpoint: mean survival time, dose: 100.0 mg/kg/injection, schedule: Q01DX001 (ip), vehicle: saline with Tween-80 95 % of control | endpoint: mean survival time, dose: 200.0 mg/kg/injection, schedule: Q01DX001 (ip), vehicle: saline with Tween-80 96 % of control | endpoint: mean survival time, dose: 400.0 mg/kg/injection, schedule: Q01DX001 (ip), vehicle: saline with Tween-80 90 % of control

Nc1cc2c3c(cccc3c1)C(=O)N(Cc1ccccc1)C2=O
inactive: endpoint: mean survival time, dose: 75.0 mg/kg/injection, schedule: Q01DX009 (ip), vehicle: Klucel (hydroxypropylcellulose) (HPC) 89 % of control | endpoint: mean survival time, dose: 150.0 mg/kg/injection, schedule: Q01DX009 (ip), vehicle: Klucel (hydroxypropylcellulose) (HPC) 92 % of control | endpoint: mean survival time, dose: 300.0 mg/kg/injection, schedule: Q01DX009 (ip), vehicle: Klucel (hydroxypropylcellulose) (HPC) 97 % of control

COC(=O)c1nc(Cl)nc(I)c1Cl
inactive: endpoint: mean survival time, dose: 12.5 mg/kg/injection, schedule: Q01DX001 (ip), vehicle: other 102 % of control | endpoint: mean survival time, dose: 25.0 mg/kg/injection, schedule: Q01DX001 (ip), vehicle: other 90 % of control

Oc1ccc(O)c2c1C1c3ccccc3C2c2ccccc21
inactive: [9] 86 % of control | [10] 108 % of control

CC12CCC(=O)C=C1CCC1C2CCC2(C)C(C(=O)CC(O)(C(F)(F)F)C(F)(F)F)CCC12 (stereo not given)
inactive: [1] 94 % of control | endpoint: mean survival time, dose: 200.0 mg/kg/injection, schedule: Q01DX001 (ip), vehicle: Klucel (hydroxypropylcellulose) (HPC) 96 % of control | endpoint: mean survival time, dose: 400.0 mg/kg/injection, schedule: Q01DX001 (ip), vehicle: Klucel (hydroxypropylcellulose) (HPC) 96 % of control

Cc1ccc(-c2nn3c(-c4ccccc4)nnc3o2)cc1
inactive: endpoint: mean survival time, dose: 100.0 mg/kg/injection, schedule: Q01DX009 (ip), vehicle: saline with Tween-80 97 % of control | endpoint: mean survival time, dose: 200.0 mg/kg/injection, schedule: Q01DX009 (ip), vehicle: saline with Tween-80 94 % of control | endpoint: mean survival time, dose: 400.0 mg/kg/injection, schedule: Q01DX009 (ip), vehicle: saline with Tween-80 102 % of control

O=C1O/C(=C\c2ccccc2)c2c(Br)c(Br)c(Br)c(Br)c21
inactive: [11] 94 % of control | [12] 91 % of control | [13] 96 % of control

O=C(O)C1C2C=CC(C2)C1C(=O)O.[Cu+2] (stereo not given)
inactive: endpoint: mean survival time, dose: 3.12 mg/kg/injection, schedule: Q01DX009 (ip), vehicle: Klucel (hydroxypropylcellulose) (HPC) 95 % of control | endpoint: mean survival time, dose: 6.25 mg/kg/injection, schedule: Q01DX009 (ip), vehicle: Klucel (hydroxypropylcellulose) (HPC) 96 % of control | endpoint: mean survival time, dose: 12.5 mg/kg/injection, schedule: Q01DX009 (ip), vehicle: Klucel (hydroxypropylcellulose) (HPC) 101 % of control | endpoint: mean survival time, dose: 12.5 mg/kg/injection, schedule: Q04DX003 (ip), vehicle: Klucel (hydroxypropylcellulose) (HPC) 103 % of control | endpoint: mean survival time, dose: 18.0 mg/kg/injection, schedule: Q01DX009 (ip), vehicle: Klucel (hydroxypropylcellulose) (HPC) 101 % of control | endpoint: mean survival time, dose: 28.0 mg/kg/injection, schedule: Q01DX009 (ip), vehicle: Klucel (hydroxypropylcellulose) (HPC) 93 % of control

NC(=O)C1(Nc2ccc(-c3ccc(Br)cc3)cc2)CCCC1
inactive: [8] 95 % of control | [11] 86 % of control | [13] 86 % of control

COc1cc(C(O)C(Cl)(Cl)Cl)ccc1O (stereo not given)
inactive: endpoint: mean survival time, dose: 100.0 mg/kg/injection, schedule: Q04DX003 (ip), vehicle: other 105 % of control | endpoint: mean survival time, dose: 200.0 mg/kg/injection, schedule: Q04DX003 (ip), vehicle: other 105 % of control | endpoint: mean survival time, dose: 400.0 mg/kg/injection, schedule: Q04DX003 (ip), vehicle: other 102 % of control

O=S(CS(=O)c1ccccc1)c1ccccc1 (stereo not given)
inactive: [9] 100 % of control | [10] 94 % of control | [14] 100 % of control

OC1CCCCC1Sc1ccccc1 (stereo not given)
inactive: endpoint: mean survival time, dose: 100.0 mg/kg/injection, schedule: Q04DX002 (ip), vehicle: saline with Tween-80 117 % of control | endpoint: mean survival time, dose: 200.0 mg/kg/injection, schedule: Q04DX002 (ip), vehicle: saline with Tween-80 111 % of control | endpoint: mean survival time, dose: 400.0 mg/kg/injection, schedule: Q04DX002 (ip), vehicle: saline with Tween-80 105 % of control

CCCCCOc1ccc(C2=C(c3ccccc3)C(=O)C(c3ccccc3)=C2c2ccccc2)cc1
inactive: [11] 100 % of control | [12] 100 % of control | [13] 94 % of control

CN(C)S(=O)(=O)c1ccc(NC(=O)OC2CCCCC2)cc1
inactive: [9] 96 % of control | [10] 91 % of control | [14] 96 % of control

CCCCC(CC)CNCCOC(=O)c1ccc(N)cc1 (stereo not given)
inactive: endpoint: mean survival time, dose: 75.0 mg/kg/injection, schedule: Q01DX001 (ip), vehicle: other 92 % of control | endpoint: mean survival time, dose: 150.0 mg/kg/injection, schedule: Q01DX001 (ip), vehicle: other 100 % of control

CN1C2CCCC1CC(=O)NC2 (stereo not given)
inactive: endpoint: mean survival time, dose: 15.0 mg/kg/injection, schedule: Q01DX001 (ip), vehicle: saline 107 % of control | endpoint: mean survival time, dose: 15.0 mg/kg/injection, schedule: Q04DX002 (ip), vehicle: saline 101 % of control | endpoint: mean survival time, dose: 30.0 mg/kg/injection, schedule: Q01DX001 (ip), vehicle: saline 106 % of control | endpoint: mean survival time, dose: 30.0 mg/kg/injection, schedule: Q04DX002 (ip), vehicle: saline 101 % of control | endpoint: mean survival time, dose: 60.0 mg/kg/injection, schedule: Q04DX002 (ip), vehicle: saline 108 % of control

O=C(NCCCOc1ccccc1)NCCc1ccc(Cl)c(Cl)c1
inactive: endpoint: mean survival time, dose: 100.0 mg/kg/injection, schedule: Q01DX001 (ip), vehicle: gum acacia 99 % of control | endpoint: mean survival time, dose: 200.0 mg/kg/injection, schedule: Q01DX001 (ip), vehicle: gum acacia 94 % of control | endpoint: mean survival time, dose: 400.0 mg/kg/injection, schedule: Q01DX001 (ip), vehicle: gum acacia 91 % of control

Nc1cccc(C(=O)NO)c1
inactive: [9] 98 % of control | [10] 103 % of control | [14] 97 % of control

CC(=O)C1CCCC(=O)/C=C/C(=O)O1 (stereo not given)
inactive: [2] 92 % of control | [3] 100 % of control

Clc1ccc(Sc2ccc(Br)cc2)cc1
inactive: [8] 103 % of control | [11] 101 % of control | [12] 103 % of control | [13] 101 % of control

CC(C)C1NC(=O)NC1=O (stereo not given)
inactive: endpoint: mean survival time, dose: 100.0 mg/kg/injection, schedule: Q01DX009 (ip), vehicle: saline 98 % of control | [5] 103 % of control | endpoint: mean survival time, dose: 200.0 mg/kg/injection, schedule: Q01DX009 (ip), vehicle: saline 105 % of control | [6] 101 % of control | endpoint: mean survival time, dose: 400.0 mg/kg/injection, schedule: Q01DX009 (ip), vehicle: saline 103 % of control | [7] 97 % of control
